Measured values published in ChEMBL document CHEMBL4813991, “Design, synthesis and bioactivity study on 5-phenylfuran derivatives as potent reversal agents against P-glycoprotein-mediated multidrug resistance in MCF-7/ADR cell” (Eur J Med Chem, 2021).
Calls of active or inactive are those of the source. The calls are words filed in the database; no cut-off is given here.

How the values were obtained:
[1] = Antiproliferative activity against human MCF7/ADR cells assessed as inhibition rate at 50 uM incubated for 48 hrs by CCK-8 assay; assay type: functional; conditions: NCI/ADR-RES
MCF7 [2] = experiment: Antiproliferative activity against human MCF7 cells assessed as inhibition rate at 50 uM incubated for 48 hrs by CCK-8 assay; assay type: functional
MCF7 [3] = experiment: Antiproliferative activity against human MCF7 cells assessed as inhibition rate at 10 uM incubated for 48 hrs by CCK-8 assay; assay type: functional
[4] = Antiproliferative activity against human MCF7/ADR cells assessed as inhibition rate at 10 uM incubated for 48 hrs by CCK-8 assay; assay type: functional; conditions: NCI/ADR-RES
[5] = target: T1, ATP-dependent translocase ABCB1 (Homo sapiens, UniProt P08183); experiment: Inhibition of P-glycoprotein in human MCF7/ADR cells assessed as rhodamine-123 accumulation by measuring fluorescence intensity at 1 uM measured after 30 mins by flow cytometry analysis; assay type: cell-based; conditions: nci/adr-res, 0.5 h
[6] = target: T1, ATP-dependent translocase ABCB1; experiment: Inhibition of P-glycoprotein in human MCF7/ADR cells assessed as rhodamine-123 accumulation by measuring fluorescence intensity at 10 uM measured after 30 mins by flow cytometry analysis; assay type: cell-based; conditions: nci/adr-res, 0.5 h
[7] = target: T1, ATP-dependent translocase ABCB1; experiment: Inhibition of P-glycoprotein in human MCF7/ADR cells assessed as reversal fold by measuring reduction in doxorubicin IC50 at 0.05 uM incubated for 48 hrs by CCK-8 assay; assay type: cell-based; conditions: nci/adr-res
NCI/ADR-RES [8] = experiment: Effect on P-glycoprotein expression in human MCF7/ADR cells upto 10 uM after 48 hrs by Western blot analysis; assay type: functional, cell-based; conditions: dose microM <=10, time 48.0 hrs
[9] = target: T1, ATP-dependent translocase ABCB1; experiment: Inhibition of P-glycoprotein in human MCF7/ADR cells assessed as reversal fold by measuring reduction in doxorubicin IC50 at 0.5 uM incubated for 48 hrs by CCK-8 assay; assay type: cell-based; conditions: nci/adr-res
[10] = target: T1, ATP-dependent translocase ABCB1; experiment: Inhibition of P-glycoprotein in human MCF7/ADR cells assessed as rhodamine-123 accumulation by measuring fluorescence intensity at 0.1 uM measured after 30 mins by flow cytometry analysis; assay type: cell-based; conditions: nci/adr-res, 0.5 h
[11] = target: T1, ATP-dependent translocase ABCB1; experiment: Inhibition of P-glycoprotein in human MCF7/ADR cells assessed as reversal fold by measuring reduction in daunorubicin IC50 at 5 uM incubated for 48 hrs by CCK-8 assay; assay type: cell-based; conditions: nci/adr-res
NCI/ADR-RES [12] = experiment: Antiproliferative activity against human MCF7/ADR cells incubated for 48 hrs by CCK-8 assay; assay type: functional, cell-based
[13] = target: T1, ATP-dependent translocase ABCB1; experiment: Inhibition of P-glycoprotein in human MCF7/ADR cells assessed as reversal fold by measuring reduction in vincristine IC50 at 5 uM incubated for 48 hrs by CCK-8 assay; assay type: cell-based; conditions: nci/adr-res
[14] = target: T1, ATP-dependent translocase ABCB1; experiment: Inhibition of P-glycoprotein in human MCF7/ADR cells assessed as reversal fold by measuring reduction in paclitaxel IC50 at 5 uM incubated for 48 hrs by CCK-8 assay; assay type: cell-based; conditions: nci/adr-res

T1 sequence (P08183 whole entry): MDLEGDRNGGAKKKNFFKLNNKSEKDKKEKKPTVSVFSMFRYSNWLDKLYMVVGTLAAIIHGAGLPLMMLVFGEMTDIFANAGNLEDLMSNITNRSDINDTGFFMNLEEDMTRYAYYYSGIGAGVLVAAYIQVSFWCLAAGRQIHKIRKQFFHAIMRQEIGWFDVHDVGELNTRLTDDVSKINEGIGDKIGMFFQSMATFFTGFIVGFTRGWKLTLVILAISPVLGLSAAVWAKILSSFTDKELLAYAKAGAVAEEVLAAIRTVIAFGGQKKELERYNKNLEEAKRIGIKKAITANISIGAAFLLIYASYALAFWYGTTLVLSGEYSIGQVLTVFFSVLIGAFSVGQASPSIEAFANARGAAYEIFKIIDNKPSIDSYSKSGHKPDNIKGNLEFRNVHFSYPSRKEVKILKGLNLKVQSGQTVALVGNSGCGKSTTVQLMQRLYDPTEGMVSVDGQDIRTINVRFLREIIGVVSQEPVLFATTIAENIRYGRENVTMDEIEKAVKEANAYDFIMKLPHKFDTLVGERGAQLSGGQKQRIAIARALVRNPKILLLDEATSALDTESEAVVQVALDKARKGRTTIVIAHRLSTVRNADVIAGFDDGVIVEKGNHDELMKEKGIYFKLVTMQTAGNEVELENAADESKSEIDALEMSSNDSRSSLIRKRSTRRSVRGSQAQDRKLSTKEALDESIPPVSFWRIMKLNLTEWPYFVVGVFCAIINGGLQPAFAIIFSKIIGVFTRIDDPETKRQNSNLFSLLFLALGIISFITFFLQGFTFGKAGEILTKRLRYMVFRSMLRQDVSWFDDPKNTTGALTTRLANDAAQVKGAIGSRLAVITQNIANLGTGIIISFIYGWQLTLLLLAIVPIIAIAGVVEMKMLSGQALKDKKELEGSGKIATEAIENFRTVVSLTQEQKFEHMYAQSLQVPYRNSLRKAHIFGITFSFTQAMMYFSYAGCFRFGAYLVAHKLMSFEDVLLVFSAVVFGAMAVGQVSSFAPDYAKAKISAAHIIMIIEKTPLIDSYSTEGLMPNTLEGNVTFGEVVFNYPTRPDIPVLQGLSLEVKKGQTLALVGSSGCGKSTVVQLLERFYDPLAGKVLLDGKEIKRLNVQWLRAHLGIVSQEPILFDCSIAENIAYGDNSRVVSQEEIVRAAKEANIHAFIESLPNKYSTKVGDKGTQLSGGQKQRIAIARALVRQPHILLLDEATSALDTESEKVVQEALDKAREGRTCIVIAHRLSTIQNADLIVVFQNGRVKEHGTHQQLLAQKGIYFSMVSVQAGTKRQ

SMILES | inhibition at 50 µM [1] [%] | inhibition at 50 µM (MCF7 [2]) [%] | inhibition at 10 µM (MCF7 [3]) [%] | also measured
CCOc1ccc(-c2ccc(C(=O)N3CCc4cc(OC)c(OC)cc4C3)o2)cc1 | 8.1 | 20.5 |  | 
COc1ccc(CCN(C)CCCC(C#N)(c2ccc(OC)c(OC)c2)C(C)C)cc1OC (stereo unspecified) |  |  | 8.3 | inhibition at 10 µM [4]: 25%
COc1cc2c(cc1OC)CN(C(=O)c1ccc(-c3cccc(OC)c3OC)o1)CC2 | 10 | 39.4 |  | 
COc1cccc(-c2ccc(C(=O)N3CCc4cc(OC)c(OC)cc4C3)o2)c1 | 1.5 | -9.9 |  | 
CCCCOc1ccc(-c2ccc(C(=O)N3CCc4cc(OC)c(OC)cc4C3)o2)cc1 | 25.4 | 21 |  | 
COc1ccc(-c2ccc(C(=O)N3CCc4cc(OC)c(OC)cc4C3)o2)cc1 | -2.1 | 20.4 |  | 
COc1cc2c(cc1OC)CN(C(=O)c1ccc(-c3ccc(OC(C)(C)C)cc3)o1)CC2 | 28.9 | 33.8 |  | 
COc1cc2c(cc1OC)CN(C(=O)c1ccc(-c3ccc(OCC(C)C)cc3)o1)CC2 | 11.9 | 19.2 |  | 
COc1cc2c(cc1OC)CN(C(=O)c1ccc(-c3ccc4c(c3)OCO4)o1)CC2 | 5.4 | 34 |  | 
COc1cc2c(cc1OC)CN(C(=O)c1ccc(-c3ccc(SC(C)C)cc3)o1)CC2 | 39 | 33.6 |  | 
COc1cc2c(cc1OC)CN(C(=O)c1ccc(-c3ccc(OC(C)C)cc3)o1)CC2 | 20 | 38.1 |  | inhibition (INH) [5]: Active; inhibition (INH) [6]: Active; fold change (FC) [7]: 1.9; Activity (NCI/ADR-RES [8]): inactive; fold change (FC) [9]: 6.7; inhibition (INH) [10]: Not Active
C/C=C/C[C@@H](C)[C@@H](O)[C@H]1C(=O)N[C@@H](CC)C(=O)N(C)CC(=O)N(C)[C@@H](CC(C)C)C(=O)N[C@@H](C(C)C)C(=O)N(C)[C@@H](CC(C)C)C(=O)N[C@@H](C)C(=O)N[C@H](C)C(=O)N(C)[C@@H](CC(C)C)C(=O)N(C)[C@@H](CC(C)C)C(=O)N(C)[C@@H](C(C)C)C(=O)N1C [CYCLOSPORINE] |  |  | 19.3 | inhibition at 10 µM [4]: 22.7%
COc1cc2c(cc1OC)CN(C(=O)c1ccc(-c3ccc(Oc4ccccc4)cc3)o1)CC2 | 57 | 45.4 | 7 | inhibition at 10 µM [4]: 27.6%
COc1ccc(-c2ccc(C(=O)N3CCc4cc(OC)c(OC)cc4C3)o2)cc1OC | 26.7 | 41.8 | 17.6 | 
COc1cccc2c1C(=O)c1c(O)c3c(c(O)c1C2=O)C[C@@](O)(C(C)=O)C[C@@H]3O[C@H]1C[C@H](N)[C@H](O)[C@H](C)O1 [DAUNORUBICIN] |  |  |  | fold change (FC) [11]: 2.8; IC50 (NCI/ADR-RES [12]): 51.6 µM
COc1cc(OC)cc(-c2ccc(C(=O)N3CCc4cc(OC)c(OC)cc4C3)o2)c1 | 52.9 | 81.8 | 19.8 | inhibition at 10 µM [4]: 21.7%
COc1ccc(-c2ccc(C(=O)N3CCc4cc(OC)c(OC)cc4C3)o2)c(OC)c1 | 59.8 | 49.3 | 15.4 | inhibition at 10 µM [4]: 28.4%
COc1cc2c(cc1OC)CN(C(=O)c1ccc(-c3ccc(OC(F)(F)F)cc3)o1)CC2 | 12.7 | -4.1 |  | 
CCCOc1ccc(-c2ccc(C(=O)N3CCc4cc(OC)c(OC)cc4C3)o2)cc1 | 32.3 | 36.2 |  | 
COc1ccc(OC)c(-c2ccc(C(=O)N3CCc4cc(OC)c(OC)cc4C3)o2)c1 | 68.2 | 63.6 | 11.4 | inhibition at 10 µM [4]: 23.2%
COc1cc2c(cc1OC)CN(C(=O)c1ccc(-c3cc(OC)c(OC)c(OC)c3)o1)CC2 | 51.2 | 64.7 | 30 | inhibition at 10 µM [4]: 19.6%
CC[C@]1(O)C[C@H]2CN(CCc3c([nH]c4ccccc34)[C@@](C(=O)OC)(c3cc4c(cc3OC)N(C=O)[C@H]3[C@@](O)(C(=O)OC)[C@H](OC(C)=O)[C@]5(CC)C=CCN6CC[C@]43[C@@H]65)C2)C1 [VINCRISTINE] |  |  |  | IC50 (NCI/ADR-RES [12]): 10.1 µM; fold change (FC) [13]: 62.8
CC(=O)O[C@H]1C(=O)[C@@]2(C)[C@H]([C@H](OC(=O)c3ccccc3)[C@]3(O)C[C@H](OC(=O)[C@H](O)[C@@H](NC(=O)c4ccccc4)c4ccccc4)C(C)=C1C3(C)C)[C@]1(OC(C)=O)CO[C@@H]1C[C@@H]2O [PACLITAXEL] |  |  |  | IC50 (NCI/ADR-RES [12]): 58.7 µM; fold change (FC) [14]: 22.6
COc1cc2c(cc1OC)CN(C(=O)c1ccc(-c3ccccc3OC)o1)CC2 | 36.9 | 66 | 55.9 | 
